Changes are numbered by the printed parent chain. Where a SMILES comes first, the peptide text is derived from it. Bridges are numbered along the chain shown (N, C = ends).
How the values were obtained:
Test in all cases: Heterologous whole cell competition binding
Settings in all cases: heterologous competition of 125I-sCT(8-32), whole cells, mean ± S.E.M., SEM
[1] = target: T1, hCTR V358A (Homo sapiens, UniProt P30988, V358A)
T1 construct: c-Myc (N); expressed in transfected cells
T1 sequence (P30988 25-474 V358A): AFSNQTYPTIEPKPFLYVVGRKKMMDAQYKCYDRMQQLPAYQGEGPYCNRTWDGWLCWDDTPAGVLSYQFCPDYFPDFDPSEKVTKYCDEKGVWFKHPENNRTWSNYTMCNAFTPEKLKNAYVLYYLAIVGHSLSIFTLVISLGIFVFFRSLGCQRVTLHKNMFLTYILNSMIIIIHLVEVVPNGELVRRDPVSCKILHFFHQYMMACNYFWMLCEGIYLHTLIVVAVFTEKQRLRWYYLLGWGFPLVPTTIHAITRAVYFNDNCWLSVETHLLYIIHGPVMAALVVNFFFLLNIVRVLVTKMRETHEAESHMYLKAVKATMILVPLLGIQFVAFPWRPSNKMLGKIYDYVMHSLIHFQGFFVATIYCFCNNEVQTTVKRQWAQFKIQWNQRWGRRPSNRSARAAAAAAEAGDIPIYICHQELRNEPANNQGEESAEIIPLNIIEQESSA
How it was run: (§1)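 Reported pKi values come from whole-cell displacement of a radiolabelled tracer, incubated overnight and quantified by gamma counting after washing out free ligand, with correction for tracer occupancy (Cheng-Prusoff).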

[2] = target: T2, hCTR V375A (Homo sapiens, UniProt P30988, V375A)
T2 construct: c-Myc (N); expressed in transfected cells
T2 sequence (P30988 25-474 V375A): T1 sequence (P30988 25-474 V358A) with A334V, V351A
How it was run: as §1

[3] = target: T3, hCTR M367A (Homo sapiens, UniProt P30988, M367A)
T3 construct: c-Myc (N); expressed in transfected cells
T3 sequence (P30988 25-474 M367A): T1 sequence (P30988 25-474 V358A) with A334V, M343A
How it was run: as §1

[4] = target: T4, hCTR R362A (Homo sapiens, UniProt P30988, R362A)
T4 construct: expressed in transfected cells
T4 sequence (P30988 25-474 R362A): T1 sequence (P30988 25-474 V358A) with A334V, R338A
How it was run: as §1

[5] = target: T5, hCTR L298A (Homo sapiens, UniProt P30988, L298A)
T5 construct: c-Myc (N); expressed in transfected cells
T5 sequence (P30988 25-474 L298A): T1 sequence (P30988 25-474 V358A) with L274A, A334V
How it was run: as §1

Ki [1]: 14.5 nM
Ki [2]: 5.13 nM
Ki [3]: 21.4 nM
Ki [4]: 46.8 nM
Ki [5]: 20.4 nM
SMILES: CSCC[C@H](NC(=O)CNC(=O)[C@H](CO)NC(=O)[C@H](Cc1ccccc1)NC(=O)[C@H](CCCNC(=N)N)NC(=O)[C@H](Cc1c[nH]cn1)NC(=O)[C@H](Cc1ccccc1)NC(=O)[C@H](CC(N)=O)NC(=O)[C@H](CC(N)=O)NC(=O)[C@H](CC(C)C)NC(=O)[C@H](CC(N)=O)NC(=O)[C@H](CCCNC(=N)N)NC(=O)[C@H](Cc1c[nH]c2ccccc12)NC(=O)[C@H](Cc1ccc(O)cc1)NC(=O)[C@H](C)NC(=O)[C@H](CO)NC(=O)[C@H](CC(C)C)NC(=O)[C@@H](NC(=O)[C@@H]1CSSC[C@H](N)C(=O)N[C@@H](CO)C(=O)N[C@@H](CC(N)=O)C(=O)N[C@@H](CC(C)C)C(=O)N[C@@H](CO)C(=O)N[C@@H]([C@@H](C)O)C(=O)N1)C(C)C)C(=O)NCC(=O)N[C@@H](Cc1ccccc1)C(=O)NCC(=O)N1CCC[C@H]1C(=O)N[C@@H](CCC(=O)O)C(=O)N[C@H](C(=O)N1CCC[C@H]1C(N)=O)[C@@H](C)O [pCT] (H-CSNLSTCVLSAYWRNLNNFHRFSGMGFGPETP-NH2; disulfide 1-7)

From paper PMC5908784, “Extracellular loops 2 and 3 of the calcitonin receptor selectively modify agonist binding and efficacy” (Biochemical Pharmacology, 2018)
